PMC11879040, “Advancing systemic toxicity risk assessment: Evaluation of a NAM-based toolbox approach” (Toxicological Sciences, 2024)
Read-outs that look alike come from different tables or passages of the source.

Tests used:
[1] = biological target: Androgen receptor, AR (h) (Homo sapiens, UniProt P10275); conditions: IPP screening at 10 uM; control testosterone
CYP2B6 = conditions: PBK level L3, Intrinsic Liver Clearance, ref [12], cited from earlier work
[2] = at the given pH, single value or median, cited from earlier work
[3] = ref [15-18]; cited from earlier work
CYP2C19 = conditions: PBK level L3, Intrinsic Liver Clearance, ref [12], cited from earlier work
human = human studies; ref [15-18]; cited from earlier work
[4] = biological target: Vitamin D3 receptor, VDR (h) (Homo sapiens, UniProt P11473); type: biochemical; conditions: 10 uM; agonist; calcitriol for control
Chain of Vitamin D3 receptor, VDR (h) (P11473 whole entry): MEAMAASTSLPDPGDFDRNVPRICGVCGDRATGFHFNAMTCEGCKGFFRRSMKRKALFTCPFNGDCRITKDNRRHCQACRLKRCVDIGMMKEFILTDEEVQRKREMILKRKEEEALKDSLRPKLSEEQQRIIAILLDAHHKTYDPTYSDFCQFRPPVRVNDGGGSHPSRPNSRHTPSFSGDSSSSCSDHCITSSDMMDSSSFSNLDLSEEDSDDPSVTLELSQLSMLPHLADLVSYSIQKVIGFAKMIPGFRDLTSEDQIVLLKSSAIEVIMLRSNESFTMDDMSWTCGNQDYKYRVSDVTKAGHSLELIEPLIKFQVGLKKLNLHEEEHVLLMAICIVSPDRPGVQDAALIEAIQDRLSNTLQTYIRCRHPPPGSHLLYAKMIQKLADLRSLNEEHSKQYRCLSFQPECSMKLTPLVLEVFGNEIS

[5] = biological target: T1, Estrogen receptor beta, ESR2 (h) (Homo sapiens, UniProt Q92731); experiment: IPP ESR2 coactivator recruitment (antagonist); type: biochemical; conditions: 100 uM, estriol, * denotes assay interference (2-Amino-6-chloro-4-nitrophenol, HC Red 3)
T1 construct: purchased Eurofins Cerep (SafetyScreen44-based IPP panel)
T1 sequence (Q92731 whole entry): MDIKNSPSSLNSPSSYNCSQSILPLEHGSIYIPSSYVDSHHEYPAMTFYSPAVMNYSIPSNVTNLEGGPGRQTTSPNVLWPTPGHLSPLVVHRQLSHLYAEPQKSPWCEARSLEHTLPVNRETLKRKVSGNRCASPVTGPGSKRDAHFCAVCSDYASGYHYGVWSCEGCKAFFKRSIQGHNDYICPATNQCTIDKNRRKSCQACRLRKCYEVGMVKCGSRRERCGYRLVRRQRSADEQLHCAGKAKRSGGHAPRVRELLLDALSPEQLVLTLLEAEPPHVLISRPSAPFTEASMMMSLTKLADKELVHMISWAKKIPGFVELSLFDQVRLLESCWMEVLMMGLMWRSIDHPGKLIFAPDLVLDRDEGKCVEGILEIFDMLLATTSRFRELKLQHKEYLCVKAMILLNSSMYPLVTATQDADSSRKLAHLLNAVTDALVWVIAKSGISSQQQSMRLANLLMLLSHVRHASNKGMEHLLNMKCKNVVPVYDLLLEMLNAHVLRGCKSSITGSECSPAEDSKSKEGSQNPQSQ

[6] = PBK input, levels L2/L3; ref [4]; cited from earlier work
[7] = hepatic intrinsic clearance (Clint); conditions: PBK input
[8] = biological target: T1, Estrogen receptor beta, ESR2 (h); experiment: IPP ESR2 coactivator recruitment (agonist); type: biochemical; conditions: 100 uM, estriol, * denotes assay interference (2-Amino-6-chloro-4-nitrophenol, HC Red 3)

Chain of Androgen receptor, AR (h) (P10275 whole entry): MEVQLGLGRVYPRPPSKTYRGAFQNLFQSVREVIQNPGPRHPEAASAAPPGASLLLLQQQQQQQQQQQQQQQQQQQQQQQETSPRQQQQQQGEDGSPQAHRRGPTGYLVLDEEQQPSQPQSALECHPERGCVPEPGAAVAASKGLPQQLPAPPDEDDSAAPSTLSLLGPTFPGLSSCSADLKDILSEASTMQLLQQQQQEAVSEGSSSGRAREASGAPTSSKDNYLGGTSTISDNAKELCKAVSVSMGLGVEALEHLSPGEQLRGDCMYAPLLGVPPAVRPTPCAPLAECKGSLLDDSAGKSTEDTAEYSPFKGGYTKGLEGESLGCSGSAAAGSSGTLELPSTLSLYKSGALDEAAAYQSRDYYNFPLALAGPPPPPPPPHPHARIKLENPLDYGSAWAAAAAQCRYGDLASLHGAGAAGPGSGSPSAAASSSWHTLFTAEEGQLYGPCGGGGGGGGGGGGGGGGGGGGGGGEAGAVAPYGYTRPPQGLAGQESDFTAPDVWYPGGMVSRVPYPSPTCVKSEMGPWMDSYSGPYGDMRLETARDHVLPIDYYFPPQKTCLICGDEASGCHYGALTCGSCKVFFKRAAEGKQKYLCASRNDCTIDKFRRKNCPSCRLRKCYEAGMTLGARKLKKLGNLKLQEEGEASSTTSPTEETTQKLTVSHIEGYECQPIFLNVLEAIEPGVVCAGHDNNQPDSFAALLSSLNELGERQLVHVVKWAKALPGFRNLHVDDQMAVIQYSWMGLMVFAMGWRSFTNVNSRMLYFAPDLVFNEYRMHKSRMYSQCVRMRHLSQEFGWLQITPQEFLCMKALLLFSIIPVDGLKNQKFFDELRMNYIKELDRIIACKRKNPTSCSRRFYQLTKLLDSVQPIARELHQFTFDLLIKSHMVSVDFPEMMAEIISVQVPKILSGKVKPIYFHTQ

CCOP(=S)(OCC)Oc1nc(Cl)c(Cl)cc1Cl [Chlorpyrifos, O,O-Diethyl O-(3,5,6-trichloropyridin-2-yl) phosphorothioate]
Specific binding [1]: 5.8% | Vmax CYP2B6 (CPFO) (CYP2B6): 418 uL/min/nmol CYP | Km (CYP2B6; read-out: km CYP2B6 (CPFO)): 0.12 µM | Aqueous Solubility ([2]; PBK level L2, ref [1],[4],[5],[10],[11],[17],[26]): 1.26 µg/mL | Aqueous Solubility ([2]; PBK level L3, ref [4],[5],[10],[11]): 1.26 µg/mL | oral reference dose [3]: 0.01 mg/kg bw/day | Vmax CYP2C19 (TCP) (CYP2C19): 2296 uL/min/mol CYP | Km (CYP2C19; read-out: km CYP2C19 (TCP)): 1.09 µM | NOAEL (human): 0.1 mg/kg bw/day

mixture of 2- and 3-tert-butyl-4-methoxyphenol [Butylated Hydroxyanisole]
IPP screening %, Coactivator recruitment [4]: -0.1%

CC1(C)O[C@@H]2[C@@H](CO[C@@]3(COS(N)(=O)=O)OC(C)(C)O[C@@H]23)O1 [Topiramate, [(3aS,5aR,8aR,8bS)-2,2,7,7-Tetramethyltetrahydro-2H,3aH,7H-bis[1,3]dioxolo[4,5-b:4',5'-d]pyran-3a-yl]methyl sulfamate (non-preferred name)]
IPP screening %, Coactivator recruitment [5]: -10.0% | Fup [6]: 79.5% | Intrinsic Liver Clearance ([7]; level L2, scaled from [6] internal data (unpublished)): 15.02 L/h | Intrinsic Liver Clearance ([7]; level L3, optimised based on [39]): 0.874 L/h | IPP screening %, Coactivator recruitment [8]: -2.0%
